Assay results: ChEMBL document CHEMBL1201862, “PubChem BioAssay data set” (2004)
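How tested: cells in 96-well plates exposed to compound for 48 hours at five concentrations. GI50: concentration for 50% inhibition of growth.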 Active and inactive are the calls of the source. No stated cut-off is given here; in the data, active = GI50 up to about 1.1 µM and inactive = higher.

What was measured:
Assay in all cases: NCI anticancer screen, dose series, 48 h
NCI/ADR-RES = tested on: NCI/ADR-RES
MDA-MB-231 = tested on: MDA-MB-231
MCF7 = tested on: MCF7
DLD-1 = tested on: DLD-1
DMS-273 = tested on: DMS-273
LXFL 529 = tested on: LXFL 529
M19-MEL = tested on: M19-MEL
SNB-78 = tested on: SNB-78
RXF 631 = tested on: RXF 631

Measured: GI50

C=CCO/N=C/c1cc(/N=C(/S)c2ccoc2C)ccc1Cl
inactive: NCI/ADR-RES 7.26 µM | MDA-MB-231 13.3 µM | MCF7 9.66 µM

CC(=O)O[C@H]1C(=O)N(c2cc3c4ccccc4ccc3c3ccccc23)[C@@H]1c1ccccc1
inactive: NCI/ADR-RES 4.38 µM | MDA-MB-231 10.9 µM | MCF7 3.13 µM

CS(=O)(=O)NNS(=O)(=O)c1ccccc1
inactive: DLD-1 > 100 µM | DMS-273 > 100 µM | LXFL 529 > 100 µM | M19-MEL > 100 µM

COc1cccc(C2N3CCCCC3[C@@H]3c4[nH]c5ccccc5c4CCN23)c1OC (some centres not stated)
inactive: DLD-1 16.9 µM | SNB-78 15.7 µM | RXF 631 16.4 µM | DMS-273 16 µM | LXFL 529 15.2 µM | M19-MEL 15.9 µM

CC/C(=N/O)c1ccc2[nH]c3c(C)cc([N+](=O)[O-])c(C)c3c2c1
inactive: DLD-1 16.2 µM | SNB-78 > 100 µM | DMS-273 19.4 µM | M19-MEL 50.2 µM

C/C=C/C1(NS(=O)(=O)c2ccc(C)cc2)CCC(C(C)(C)C)CC1 (configuration not stated)
inactive: DLD-1 35.8 µM | SNB-78 25.6 µM | RXF 631 24.7 µM | DMS-273 16 µM | LXFL 529 37.5 µM | M19-MEL 19.7 µM

CC1(C)C(=NNC(=S)NN)C(C)(C)C1=NNC(=S)NN
inactive: DLD-1 > 100 µM | RXF 631 > 100 µM | M19-MEL > 100 µM

CN[C@@H](C)[C@@H](N)c1ccccc1
inactive: DLD-1 > 100 µM | SNB-78 > 100 µM | RXF 631 > 100 µM | DMS-273 > 100 µM | LXFL 529 > 100 µM

O=C(NOC(=O)c1ccc([N+](=O)[O-])cc1)c1ccc(Cl)cc1
inactive: DLD-1 38.7 µM | SNB-78 16.6 µM | RXF 631 > 100 µM | LXFL 529 17.9 µM | M19-MEL > 100 µM

Cc1cc2c(C=O)n[nH]c2c(C#N)c1C
inactive: DLD-1 > 100 µM | SNB-78 95.3 µM | RXF 631 58.5 µM | DMS-273 43.1 µM | LXFL 529 34.7 µM | M19-MEL 60.8 µM

Nc1ccc2nc(NCc3ccc(F)cc3)cnc2c1
inactive: SNB-78 75.7 µM | DMS-273 > 100 µM | LXFL 529 > 100 µM

CC1=C(C(=O)Nc2ccccc2C)C(c2ccccc2O)C(C(=O)Nc2ccccc2C)=C(C)N1
inactive: DLD-1 16.8 µM | SNB-78 29.5 µM | DMS-273 17.7 µM | LXFL 529 20.1 µM | M19-MEL 21 µM

O=C(n1c(=O)n(-c2ccc(Cl)cc2)c(=O)n1C(=O)C(Cl)(Cl)Cl)C(Cl)(Cl)Cl
inactive: NCI/ADR-RES 43.5 µM | MDA-MB-231 7.67 µM | MCF7 > 100 µM

CCOC(=O)NC1C2CC(=O)OC(O2)C1OC(C)=O (configuration not stated)
inactive: DLD-1 90.6 µM | SNB-78 > 100 µM | RXF 631 > 100 µM | DMS-273 > 100 µM | LXFL 529 > 100 µM | M19-MEL > 100 µM

CCCCC(=O)Oc1ccc2c(C)cc(=O)oc2c1
inactive: NCI/ADR-RES > 100 µM | MDA-MB-231 > 100 µM | MCF7 > 100 µM

CN(C)CCNC1=Nc2ccccc2C(=O)N2CSCC12 (configuration not stated)
inactive: NCI/ADR-RES > 100 µM | MDA-MB-231 > 100 µM | MCF7 > 100 µM

CC(C)(C)OC(=O)NC(Cc1ccccc1)C(=O)OCN1C(=O)C2C3C=CC(C2C1=O)C1C2C(=O)N(COC(=O)C(Cc4ccccc4)NC(=O)OC(C)(C)C)C(=O)C2C31 (configuration not stated)
inactive: NCI/ADR-RES 43 µM | MDA-MB-231 29.7 µM | MCF7 13.4 µM

Cc1c2nc3ccccc3sc-2cc(=O)c1C
inactive: DLD-1 12.7 µM | SNB-78 > 24.3 µM | DMS-273 50.6 µM | LXFL 529 41 µM | M19-MEL 15.8 µM

Cc1cccc(Nc2cnc(N)nc2N)c1
inactive: NCI/ADR-RES > 100 µM | MDA-MB-231 > 100 µM | MCF7 > 100 µM

O=C(CC(C(=O)c1ccoc1)c1ccco1)c1ccco1 (configuration not stated)
inactive: NCI/ADR-RES 80.5 µM | MDA-MB-231 18.6 µM | MCF7 > 100 µM

CCOC(=O)COc1cccc2c1C(=O)CCO2
inactive: DLD-1 > 100 µM | SNB-78 > 100 µM | RXF 631 > 100 µM | DMS-273 > 100 µM | LXFL 529 > 100 µM | M19-MEL > 100 µM

Cc1c2c(OCCN3CCCCC3)nn(C)c(=O)c2c(C)n1-c1ccccc1
inactive: NCI/ADR-RES 42.4 µM | MDA-MB-231 32.4 µM | MCF7 25.5 µM

Clc1ccc(-c2c(C3=NCCN3)nnn2-c2ccc(Cl)cc2)cc1
inactive: DLD-1 27.9 µM | SNB-78 18.8 µM | DMS-273 42.2 µM | LXFL 529 29.4 µM | M19-MEL 16.6 µM

N#CC(C(=N/O)/C(=N\O)C(C#N)c1ccccc1)c1ccccc1 (configuration not stated)
inactive: DLD-1 > 100 µM | SNB-78 > 100 µM | RXF 631 > 100 µM | LXFL 529 > 100 µM | M19-MEL 99.1 µM

N#CC(Sc1ccccc1)C(N)=O (configuration not stated)
inactive: DLD-1 > 100 µM | SNB-78 > 100 µM | RXF 631 > 100 µM | DMS-273 > 100 µM | LXFL 529 > 100 µM | M19-MEL > 100 µM
